The source of these data is patent publication US9879023B2, “Therapeutic compounds” (Gilead Sciences, Inc., priority 2011, dated 2018).

Usually EC50 stands for the concentration that produces a half-maximal response.

One test deals with HIV-IIIb (MT-4 cells). The test can be described thus: Test A: Antiviral Assays in MT4 Cells. It counts as cell-based. Conditions: Human immunodeficiency virus 1, IIIB, MT4, 120 h, MT-4 cells infected with HIV-IIIb (0.004 m.o.i.), 5 days incubation, CellTiter-Glo readout; read-out: EC50. On the procedure:
Test A: Antiviral Assays in MT4 Cells
For the antiviral assay utilizing MT-4 cells, 0.4 μL of […] test concentration of 3-fold serially diluted compound in DMSO was added to 40 μL of cell growth medium (RPMI 1640, 10% FBS, 1% penicilline/Streptomycine, 1% L-Glutamine, 1% HEPES) in each well of 384-well assay plates (10 concentrations) in quadruplicate.
1 mL aliquots of 2×10e6 MT-4 cells are pre-infected for 1 and 3 hrs respectively, @37° C. with 25 uL (MT4) or of either cell growth medium (mock-infected) or a fresh 1:250 dilution of an HIV-IIIb concentrated ABI stock (0.004 m.o.i. for MT4 cells). Infected and uninfected cells are diluted in cell growth medium and 35 uL of 2000 (for MT4) cells is added to each well of the assay plates.
Assay plates were then incubated in a 37° C. incubator. After 5 days of incubation, 25 μl of 2× concentrated CellTiter-Glo™ Reagent (catalog # G7573, Promega Biosciences, Inc., Madison, Wis.) was added to each well of the assay plate. Cell lysis was carried out by incubating at room temperature for 2-3 min and then chemiluminescence was read using the Envision reader (PerkinElmer). […]
Background: Cellular ATP, detected with luciferase, serves as a proxy for viable cell number.
Turning to `CCN(C)c1nc2cc(C)c([C@H](OC(C)(C)C)C(=O)O)c(-c3ccc4c5c(ccnc35)CCO4)c2s1` (atropisomer, axis not shown) [Compound 44, (S)-2-tert-butoxy-2-((S)-7-(2,3-dihydropyrano[4,3,2-de]quinolin-7-yl)-2-(ethyl(methyl)amino)-5-methylbenzo[d]thiazol-6-yl)acetic acid], the EC50 was determined as 18.7 nM. Still for that read-out and setting: in the case of `Cc1cc2nc(C(N)=O)sc2c(-c2ccc3c4c(ccnc24)CCO3)c1[C@H](OC(C)(C)C)C(=O)O` [Compound 40, (S)-2-tert-butoxy-2-((S)-2-carbamoyl-7-(2,3-dihydropyrano[4,3,2-de]quinolin-7-yl)-5-methylbenzo[d]thiazol-6-yl)acetic acid] it was 722 nM. The same measure, in the same setting: in the case of `CNC(=O)c1nc2cc(C)c([C@H](OC(C)(C)C)C(=O)O)c(-c3ccc4c5c(ccnc35)CCO4)c2s1` (atropisomer, axis not shown) [Compound 97, (S)-2-tert-butoxy-2-((S)-7-(2,3-dihydropyrano[4,3,2-de]quinolin-7-yl)-5-methyl-2-(methylcarbamoyl)benzo[d]thiazol-6-yl)acetic acid] it was 1240 nM. Regarding `COc1nc2cc(C)c([C@H](OC(C)(C)C)C(=O)O)c(-c3ccc4c5c(ccnc35)CCO4)c2s1` (atropisomer, axis not shown) [Compound 66, (S)-2-tert-butoxy-2-((S)-7-(2,3-dihydropyrano[4,3,2-de]quinolin-7-yl)-2-methoxy-5-methylbenzo[d]thiazol-6-yl)acetic acid], the EC50 was 22.5 nM. On the same count and under the same terms, in the case of `Cc1cc2c(sc(=O)n2C)c(-c2ccc3c4c(ccnc24)CCO3)c1[C@H](OC(C)(C)C)C(=O)O` (atropisomer, axis not shown) [Compound 68, (S)-2-tert-butoxy-2-((S)-7-(2,3-dihydropyrano[4,3,2-de]quinolin-7-yl)-3,5-dimethyl-2-oxo-2,3-dihydrobenzo[d]thiazol-6-yl)acetic acid] it was 292 nM. The same measure, in the same setting: in the case of `Cc1cc2nc(C(=O)NCCc3ccccc3)sc2c(-c2ccc3c4c(ccnc24)CCO3)c1[C@H](OC(C)(C)C)C(=O)O` (atropisomer, axis not shown) [Compound 98, (S)-2-tert-butoxy-2-((S)-7-(2,3-dihydropyrano[4,3,2-de]quinolin-7-yl)-5-methyl-2-(phenethylcarbamoyl)benzo[d]thiazol-6-yl)acetic acid] it was 2510 nM; in that of `Cc1cc2nc(N(C)C)sc2c(-c2ccc(Cl)cc2)c1[C@H](OC(C)(C)C)C(=O)O` [Compound 12], 113 nM. `Cc1nc2cc(C)c([C@H](OC(C)(C)C)C(=O)O)c(-c3ccc(Cl)cc3)c2s1` [Compound 7, (S)-2-tert-butoxy-2-(7-(4-chlorophenyl)-2,5-dimethylbenzo[d]thiazol-6-yl)acetic acid]: the EC50 stood at 257 nM. As to `Cc1cc2nc(N(C)C)sc2c(-c2ccc3c4c(ccnc24)CCO3)c1[C@H](OC(C)(C)C)C(=O)O` [Compound 42, (S)-2-tert-butoxy-2-((S)-7-(2,3-dihydropyrano[4,3,2-de]quinolin-7-yl)-2-(dimethylamino)-5-methylbenzo[d]thiazol-6-yl)acetic acid], the EC50 amounted to 10.3 nM. Still for that read-out and setting: as for `Cc1cc2nc(C#CC3CC3)sc2c(-c2ccc(Cl)cc2)c1[C@H](OC(C)(C)C)C(=O)O` [Compound 14], the figure is 718 nM.

Take `Cc1cc2nc(C(=O)O)sc2c(-c2ccc3c4c(ccnc24)CCO3)c1[C@H](OC(C)(C)C)C(=O)O` (atropisomer, axis not shown) [Compound 41]: the EC50 came out at 923 nM. Still for that read-out and setting: in the case of `Cc1cc2nc(C(C)C)sc2c(-c2ccc3c4c(ccnc24)CCO3)c1[C@H](OC(C)(C)C)C(=O)O` (atropisomer, axis not shown) [Compound 88, (S)-2-tert-butoxy-2-((S)-7-(2,3-dihydropyrano[4,3,2-de]quinolin-7-yl)-2-isopropyl-5-methylbenzo[d]thiazol-6-yl)acetic acid] it was 13.3 nM; in that of `CCN(CC)c1nc2cc(C)c([C@H](OC(C)(C)C)C(=O)O)c(-c3ccc4c5c(ccnc35)CCO4)c2s1` (atropisomer, axis not shown) [Compound 45, (S)-2-tert-butoxy-2-((S)-2-(diethylamino)-7-(2,3-dihydropyrano[4,3,2-de]quinolin-7-yl)-5-methylbenzo[d]thiazol-6-yl)acetic acid], 67 nM; in that of `Cc1cc2ncsc2c(-c2ccc(Cl)cc2)c1[C@H](OC(C)(C)C)C(=O)O` [Compound 5L, (S)-2-tert-butoxy-2-(7-(4-chlorophenyl)-5-methylbenzo[d]thiazol-6-yl)acetic acid], 2950 nM. Still for that read-out and setting: as for `Cc1cc2nc(C3CCC3)sc2c(-c2ccc3c4c(ccnc24)CCO3)c1[C@H](OC(C)(C)C)C(=O)O` (atropisomer, axis not shown) [Compound 82, (S)-2-tert-butoxy-2-((S)-2-cyclobutyl-7-(2,3-dihydropyrano[4,3,2-de]quinolin-7-yl)-5-methylbenzo[d]thiazol-6-yl)acetic acid], the figure is 40.2 nM.

Take `CCc1nc2cc(C)c([C@H](OC(C)(C)C)C(=O)O)c(-c3ccc(Cl)cc3)c2s1` [Compound 9]: the concentration giving a half-maximal response (EC50) was determined as 118 nM. Still for that read-out and setting: in the case of `Cc1cc2nc(C(=O)C3=CCC3)sc2c(-c2ccc(Cl)cc2)c1[C@H](OC(C)(C)C)C(=O)O` [Compound 14b] it was 480 nM.

Still in this test, the particulars now being: MT-4 cells infected with HIV-IIIb (0.004 m.o.i.), 5 days incubation, CellTiter-Glo readout; read-out: EC50.
Regarding `Cc1cc2nc(N3CCC3)sc2c(-c2ccc3c4c(ccnc24)CCO3)c1[C@H](OC(C)(C)C)C(=O)O` [Compound 35, (S)-2-((S)-2-(azetidin-1-yl)-7-(2,3-dihydropyrano[4,3,2-de]quinolin-7-yl)-5-methylbenzo[d]thiazol-6-yl)-2-tert-butoxyacetic acid], the EC50 worked out at 12.7 nM.

In the case of `Cc1cc2nc(CC(C)C)sc2c(-c2ccc3c4c(ccnc24)CCO3)c1[C@H](OC(C)(C)C)C(=O)O` (atropisomer, axis not shown) [Compound 83, (S)-2-tert-butoxy-2-((S)-7-(2,3-dihydropyrano[4,3,2-de]quinolin-7-yl)-2-isobutyl-5-methylbenzo[d]thiazol-6-yl)acetic acid], the EC50 was determined as 93.2 nM. In the case of `Cc1cc2nc(C3=CCCC3)sc2c(-c2ccc3c4c(ccnc24)CCO3)c1[C@H](OC(C)(C)C)C(=O)O` (atropisomer, axis not shown) [Compound 79, (S)-2-tert-butoxy-2-((R)-2-cyclopentenyl-7-(2,3-dihydropyrano[4,3,2-de]quinolin-7-yl)-5-methylbenzo[d]thiazol-6-yl)acetic acid], the EC50 stood at 45900 nM.

As to `Cc1cc2nc(N(C)CC(C)C)sc2c(-c2ccc3c4c(ccnc24)CCO3)c1[C@H](OC(C)(C)C)C(=O)O` (atropisomer, axis not shown) [Compound 48, (S)-2-tert-butoxy-2-((S)-7-(2,3-dihydropyrano[4,3,2-de]quinolin-7-yl)-2-(isobutyl(methyl)amino)-5-methylbenzo[d]thiazol-6-yl)acetic acid], the EC50 is 67 nM. Same read-out and setting: in the case of `Cc1cc2nc(CC(C)C)sc2c(-c2ccc3c4c(ccnc24)CCO3)c1[C@H](OC(C)(C)C)C(=O)O` (atropisomer, axis not shown) [Compound 84, (S)-2-tert-butoxy-2-((R)-7-(2,3-dihydropyrano[4,3,2-de]quinolin-7-yl)-2-isobutyl-5-methylbenzo[d]thiazol-6-yl)acetic acid] it was 14900 nM; in that of `Cc1cc2nc(C3CCCC3)sc2c(-c2ccc3c4c(ccnc24)CCO3)c1[C@H](OC(C)(C)C)C(=O)O` (atropisomer, axis not shown) [Compound 80, (S)-2-tert-butoxy-2-((S)-2-cyclopentyl-7-(2,3-dihydropyrano[4,3,2-de]quinolin-7-yl)-5-methylbenzo[d]thiazol-6-yl)acetic acid], 136 nM.

As to `Cc1cc2nc(C3CCCC3)sc2c(-c2ccc3c4c(ccnc24)CCO3)c1[C@H](OC(C)(C)C)C(=O)O` (atropisomer, axis not shown) [Compound 81, (S)-2-tert-butoxy-2-((R)-2-cyclopentyl-7-(2,3-dihydropyrano[4,3,2-de]quinolin-7-yl)-5-methylbenzo[d]thiazol-6-yl)acetic acid], the EC50 is 27400 nM.

Take `Cc1cc2nc(N(C)CCN(C)C)sc2c(-c2ccc3c4c(ccnc24)CCO3)c1[C@H](OC(C)(C)C)C(=O)O` (atropisomer, axis not shown) [Compound 62, (S)-2-tert-butoxy-2-((R)-7-(2,3-dihydropyrano[4,3,2-de]quinolin-7-yl)-2-((2-(dimethylamino)ethyl)(methyl)amino)-5-methylbenzo[d]thiazol-6-yl)acetic acid]: the 50% effective concentration (EC50) was found to be 4880 nM. On the same count and under the same terms, as for `Cc1cc2nc(N(C)C(C)C)sc2c(-c2ccc3c4c(ccnc24)CCO3)c1[C@H](OC(C)(C)C)C(=O)O` (atropisomer, axis not shown) [Compound 46, (S)-2-tert-butoxy-2-((S)-7-(2,3-dihydropyrano[4,3,2-de]quinolin-7-yl)-2-(isopropyl(methyl)amino)-5-methylbenzo[d]thiazol-6-yl)acetic acid], the figure is 16.8 nM.
